Test results: ChEMBL document CHEMBL1275256, “Contribution of a plasmid-borne blaOXA-58 gene with its hybrid promoter provided by IS1006 and an ISAba3-like element to beta-lactam resistance in acinetobacter genomic species 13TU” (2010)
In brackets after ≈: the same amount, converted by molar mass. Activity calls are given as the source filed them. The rule behind the calls is not given here.

Key:
Type in all cases: functional
[1] = Antimicrobial activity against Acinetobacter genomic species 13TU by agar dilution method; conditions: Acinetobacter nosocomialis
[2] = Antimicrobial activity against Acinetobacter genomic species 13TU ATCC 17903 by agar dilution method; conditions: Acinetobacter nosocomialis
[3] = Antimicrobial activity against Acinetobacter genomic species 13TU ATCC 17903 harboring pYMAb3 plasmid by agar dilution method; conditions: Acinetobacter nosocomialis
[4] = Antimicrobial activity against Acinetobacter genomic species 13TU ATCC 17903 harboring pOXA-58-5 plasmid by agar dilution method; conditions: Acinetobacter nosocomialis
[5] = Antimicrobial activity against Acinetobacter genomic species 13TU ATCC 17903 harboring pOXA-58-6 plasmid by agar dilution method; conditions: Acinetobacter nosocomialis
[6] = Antimicrobial activity against Acinetobacter genomic species 13TU ATCC 17903 harboring pOXA-58-7 plasmid by agar dilution method; conditions: Acinetobacter nosocomialis
[7] = Antimicrobial activity against Acinetobacter genomic species 13TU ATCC 17903 harboring pOXA-58-6 plasmid by Vitek II system; conditions: Acinetobacter nosocomialis
[8] = Antimicrobial activity against Acinetobacter genomic species 13TU ATCC 17903 harboring pOXA-58-7 plasmid by Vitek II system; conditions: Acinetobacter nosocomialis
[9] = Antimicrobial activity against Acinetobacter genomic species 13TU by Vitek II system; conditions: Acinetobacter nosocomialis
[10] = Antimicrobial activity against Acinetobacter genomic species 13TU ATCC 17903 by Vitek II system; conditions: Acinetobacter nosocomialis
[11] = Antimicrobial activity against Acinetobacter genomic species 13TU ATCC 17903 harboring pYMAb3 plasmid by Vitek II system; conditions: Acinetobacter nosocomialis
[12] = Antimicrobial activity against Acinetobacter genomic species 13TU ATCC 17903 harboring pOXA-58-5 plasmid by Vitek II system; conditions: Acinetobacter nosocomialis
[13] = test system: Acinetobacter nosocomialis; experiment: Antimicrobial activity against Acinetobacter genomic species 13TU ATCC 17903 harboring pOXA-58-5 plasmid by Etest method
[14] = test system: Acinetobacter nosocomialis; experiment: Antimicrobial activity against Acinetobacter genomic species 13TU ATCC 17903 harboring pOXA-58-6 plasmid by Etest method
[15] = Antimicrobial activity against Acinetobacter genomic species 13TU by Vitek II system in presence of Tazobactam; conditions: Acinetobacter nosocomialis
[16] = Antimicrobial activity against Acinetobacter genomic species 13TU ATCC 17903 by Vitek II system in presence of Tazobactam; conditions: Acinetobacter nosocomialis
[17] = Antimicrobial activity against Acinetobacter genomic species 13TU ATCC 17903 harboring pOXA-58-5 plasmid by Vitek II system in presence of Tazobactam; conditions: Acinetobacter nosocomialis

Row | SMILES | MIC [1] [µg/mL] | MIC [2] [µg/mL] | MIC [3] [µg/mL] | MIC [4] [µg/mL] | MIC [5] [µg/mL] | MIC [6] [µg/mL] | MIC [7] [µg/mL] | MIC [8] [µg/mL] | MIC [9] [µg/mL] | MIC [10] [µg/mL] | MIC [11] [µg/mL] | MIC [12] [µg/mL] | Activity [13] | Activity [14] | MIC [15] [µg/mL] | MIC [16] [µg/mL] | MIC [17] [µg/mL]
1 | CC1(C)S[C@@H]2[C@H](NC(=O)[C@H](N)c3ccc(O)cc3)C(=O)N2[C@H]1C(=O)O [AMOXICILLIN] | > 1020 | 64 (≈ 175 µM) | 64 (≈ 175 µM) | > 1020 | > 1020 | 256 (≈ 701 µM) | – | – | – | – | – | – | – | – | – | – | –
2 | CO/N=C(\C(=O)N[C@@H]1C(=O)N2C(C(=O)[O-])=C(C[N+]3(C)CCCC3)CS[C@H]12)c1csc(N)n1 [CEFEPIME] | 128 (≈ 266 µM) | 2 (≈ 4.16 µM) | 2 (≈ 4.16 µM) | 4 (≈ 8.32 µM) | 2 (≈ 4.16 µM) | – | – | – | – | – | – | – | – | – | – | – | –
3 | CC(C)(O/N=C(\C(=O)N[C@@H]1C(=O)N2C(C(=O)[O-])=C(C[n+]3ccccc3)CS[C@H]12)c1csc(N)n1)C(=O)O [CEFTAZIDIME] | 16 (≈ 29.3 µM) | 4 (≈ 7.32 µM) | 4 (≈ 7.32 µM) | 4 (≈ 7.32 µM) | 4 (≈ 7.32 µM) | 4 (≈ 7.32 µM) | – | – | – | – | – | – | – | – | – | – | –
4 | CO/N=C(\C(=O)N[C@@H]1C(=O)N2C(C(=O)O)=C(COC(N)=O)CS[C@H]12)c1ccco1 [CEFUROXIME] | – | – | – | – | – | – | 16 (≈ 37.7 µM) | 16 (≈ 37.7 µM) | ≥ 64 | 16 (≈ 37.7 µM) | 16 (≈ 37.7 µM) | ≥ 64 | – | – | – | – | –
5 | C[C@@H](O)[C@H]1C(=O)N2C(C(=O)O)=C(SCCNC=N)C[C@H]12 [IMIPENEM ANHYDROUS] | 16 (≈ 53.4 µM) | 0.25 (≈ 0.835 µM) | 0.25 (≈ 0.835 µM) | 32 (≈ 107 µM) | 16 (≈ 53.4 µM) | 0.5 (≈ 1.67 µM) | – | – | – | – | – | – | inactive | – | – | – | –
6 | C[C@@H](O)[C@H]1C(=O)N2C(C(=O)O)=C(S[C@@H]3CN[C@H](C(=O)N(C)C)C3)[C@H](C)[C@H]12 [MEROPENEM] | 8 (≈ 20.9 µM) | 0.5 (≈ 1.3 µM) | 0.5 (≈ 1.3 µM) | 16 (≈ 41.7 µM) | 8 (≈ 20.9 µM) | 0.5 (≈ 1.3 µM) | – | – | – | – | – | – | – | inactive | – | – | –
7 | CCN1CCN(C(=O)N[C@@H](C(=O)N[C@@H]2C(=O)N3[C@@H]2SC(C)(C)[C@@H]3C(=O)O)c2ccccc2)C(=O)C1=O [PIPERACILLIN] | > 1020 | 16 (≈ 30.9 µM) | 16 (≈ 30.9 µM) | > 1020 | 512 (≈ 989 µM) | 32 (≈ 61.8 µM) | – | – | – | – | – | – | – | – | ≥ 128 | ≤ 4 | ≥ 128
8 | CC1(C)S[C@@H]2[C@H](NC(=O)[C@H](C(=O)O)c3ccsc3)C(=O)N2[C@H]1C(=O)O [TICARCILLIN] | > 1020 | 16 (≈ 41.6 µM) | 16 (≈ 41.6 µM) | > 1020 | > 1020 | 256 (≈ 666 µM) | – | – | – | – | – | – | – | – | – | – | –
